Literature values, collected in patent publication US6982284B1, “Compositions and methods for modification of skin lipid content” (Applied Genetics Incorporated Dermatics, priority 1999, dated 2006).

Tested on: living skin equivalents

Vitamin E
effect on lipid composition: no effect

O=C1O[C@H]([C@@H](O)CO)C(O)=C1O [Vitamin C]
glucosylceramides and ceramides, most notably ceramides 6 and 7 (50 ug/ml): increases
